Data on one compound can be found in US9790180B2, “Piperidine derivatives as HDAC1/2 inhibitors” (Acetylon Pharmaceuticals, Inc., priority 2014, dated 2017).

Each structure is given as a SMILES string.

One series deals with HDAC2 (Homo sapiens (Human), UniProt Q92769). Kind of series: HDAC enzyme assay, HDAC2. The series is classed as biochemical. The conditions noted are these: 24 hours pre-incubation with enzyme; read-out: IC50 (nM) HDAC2. As to the method:
Compounds for testing were diluted in DMSO to 50 fold the final concentration and a ten point three fold dilution series was made. The compounds were diluted in assay buffer (50 mM HEPES, pH 7.4, 100 mM KCl, 0.001% Tween-20, 0.05% BSA, 20 μM tris(2-carboxyethyl)phosphine) to 6 fold their final concentration. The HDAC enzymes (purchased from BPS Biosciences) were diluted to 1.5 fold their final concentration in assay buffer and pre-incubated with the compounds for 24 hours prior to addition of the substrate.
The substrate tripeptide substrate 3 (synthesized in house) for each enzyme was equal to the Km as determined by a substrate titration curve. The substrates were diluted in assay buffer at 6× their final concentration with 0.3 μM sequencing grade trypsin (Sigma). The substrate/trypsin mix was added to the enzyme/compound mix, the plate was shaken for 60 seconds and placed into a Spectramax M5 microtiter plate reader. The development of fluorescence was monitored for 30 min and the linear rate of the reaction was calculated. The IC50 was determined using Graph Pad Prism by a four parameter curve fit. The IC50 values obtained for the compounds of this invention are found in Table 1. Examples of the curves are found in FIGS. 1 and 4.

Series [1] can be described thus: Rat cassette pharmacokinetics. The conditions noted are these: male, SD, plasma. Format: in vivo. The protocol:
Male SD rats were fasted overnight. Compounds of the invention were dissolved in dimethyl acetamide at 10 times the final concentration, then Solutol HS 15 (BASF) was added to a final concentration of 10%. Finally 80% saline was added and vortexed to achieve a clear solution. For the IV dosing three animals were injected via the foot dorsal vein with 1 mg/kg compound. For the PO dosing 5 mg/kg of compound was delivered by oral gavage. Blood was collected via the tail vein into K2EDTA tubes at 5 minutes, 15 minutes, 30 minutes, 1 hour, 2 hours, 4 hours, 8 hours and 24 hours after dosing. The blood was centrifuged at 2000 g for 5 minutes at 4° C. to obtain plasma. The plasma was extracted with acetonitrile and the level of compound was analyzed by LC/MS/MS. The level of compound in plasma was calculated from a standard curve in rat plasma. The IV clearance and area under the curve were calculated using WinNonLin software. The dose adjusted area under the curve for the IV and oral dosing were used to calculate the oral bioavailability.

Series [2] deals with bacterial tester strains TA98, TA100, TA1535 and TA97a and E. coli tester strain WP2 uvrA. In words: Ames genotoxicity (bacterial reverse mutation). The conditions noted are these: In vitro tox. As to the method:
For genotoxicity, bacterial tester strains TA98, TA100, TA1535 and TA97a as described by Ames et al. (1975) and the E. coli tester strain WP2 uvrA as described by Green and Muriel (1976) were incubated with Compound 003 at 250, 75, 25, 7.5, 2.5, 0.75, 0.25, and 0.075 μg/well in 24 well plates either with or without liver homogenate (S9) purchased commercially (MolTox; Boone, N.C.) prepared from male Sprague Dawley rats that have been injected intraperitonealy with Aroclor 1254 (200 mg/mL in corn oil), at a dose of 500 mg/kg, 5 days before sacrifice. Mutagenicity is evaluated by counting the number of colonies that form on non-permissive media.

[3] abbreviates: rat cassette dosing, 5 mg/kg PO.

Chain of HDAC2 (Q92769 whole entry): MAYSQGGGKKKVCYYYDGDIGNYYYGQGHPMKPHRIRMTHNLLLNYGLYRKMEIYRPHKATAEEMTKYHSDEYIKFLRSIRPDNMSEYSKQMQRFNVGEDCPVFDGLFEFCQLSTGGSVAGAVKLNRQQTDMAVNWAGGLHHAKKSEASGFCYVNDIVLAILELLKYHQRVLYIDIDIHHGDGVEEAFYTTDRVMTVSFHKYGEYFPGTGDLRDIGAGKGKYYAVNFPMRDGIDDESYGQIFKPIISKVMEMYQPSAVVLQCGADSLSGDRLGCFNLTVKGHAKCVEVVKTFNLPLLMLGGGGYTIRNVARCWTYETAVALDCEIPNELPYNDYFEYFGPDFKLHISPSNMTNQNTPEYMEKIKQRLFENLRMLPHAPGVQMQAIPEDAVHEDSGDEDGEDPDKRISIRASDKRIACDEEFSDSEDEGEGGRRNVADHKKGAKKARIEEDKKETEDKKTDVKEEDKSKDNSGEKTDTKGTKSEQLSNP

As a reminder, the IC50 is the midpoint of a concentration-inhibition curve. In general, bioavailability refers to dose-corrected exposure relative to a reference, in per cent. A low value points to little systemic uptake. For orientation: AUC means the area under the concentration-time curve, a measure of exposure. A high value points to more exposure. As usually defined, the Cmax is the peak of the concentration-time curve. Take `CN1CCN(C(=O)N2CCC(Nc3ccc(C(=O)Nc4cc(-c5cccs5)ccc4N)cc3)CC2)CC1` [Compound 005]: the concentration for half-maximal inhibition (IC50) on HDAC2 amounted to 4.9 nM. In series [1] (5 mg/kg, rat, oral AUC to IV AUC, dose adjusted), this compound yielded a bioavailability of 79%. In series [1] (setting [3]), the AUC amounted to 9160 ng·h/mL and the Cmax came to 569 ng/mL. For the same compound, in series [1] (rat cassette dosing, 5 mg/kg PO, read-out: PO T½ (converted)), the half-life is over 24 h. The CL renal in series [1] (rat cassette dosing, IV 1 mg/kg, read-out: IV Clr. (converted)) is 6.33 mL/min/kg. Besides, the Ames entry in series [2] is on record as “Neg”.
